The text below walks through data of article PMC12888920, “MMP-9 regulates disulphide isomerase activity of TGM2 to enhance fusion glycoprotein-mediated syncytium formation of respiratory syncytial virus” (Protein & Cell, 2025).

One experiment has as its system RSV F/G/SH pseudovirus. Put plainly: RSV F/G/SH pseudovirus entry assay (luciferase). Format: cell-based, Respiratory syncytial virus. As to conditions: 5 µmol/L, HEp-2, 48 hpi. The procedure:
Figure 2. MMP-9 regulates late-stage RSV infection. (A) Time-of-addition assay design (left). HEp-2 cells were treated with metalloproteinase inhibitors under three regimens: “Full-time” (2 h pretreatment + continuous exposure), “Entry” (viral attachment phase only), or “Post-entry” (≥ 2 hpi). Cells infected with RSV A2 (MOI = 1) were analyzed for cytopathic effect inhibition at 72 hpi versus DMSO controls. mean ± SD, n = 3. (B) No inhibition of RSV F/G/SH pseudovirus entry by doxycycline hyclate or JNJ0966 (5 µmol/L). mean ± SD, n = 3. (C) Temporal sensitivity analysis (left). Viral RNA levels (22 hpi) in HEp-2 cells treated with 5 µmol/L inhibitors at defined intervals: pre-infection (−2–0 h), entry (0–2 h), or post-entry (2–16 h) phases (right). mean ± SD, n = 3. (D) Multicycle replication kinetics. Intracellular RSV RNA (fusion gene copies) in HEp-2 cells treated with 5 µmol/L inhibitors at indicated time points (4–144 hpi). mean ± SD, n = 3. (E) Viral assembly/release inhibition assay. Supernatant viral titers at 22 hpi after post-entry treatment (10/16 hpi) (right). mean ± SD, n = 3. (F) Dose-dependent suppression of RSV progeny (MOI = 0.2/1) by inhibitors (72 hpi), quantified by FFA. mean ± SD, n = 3. […] The results are representatively shown with three random experiments. The error bars indicate the mean ± SD of three technical replicates (n = 3). […]

The test system of the next experiment is RSV A2. Nature of the experiment: Suppression of RSV progeny viral titer (FFA, 72 hpi) in HEp-2 cells. It counts as cell-based, Respiratory syncytial virus. As to conditions: 0.2 and 1 MOI. How it is done: Figure 2. MMP-9 regulates late-stage RSV infection. (A) Time-of-addition assay design (left). HEp-2 cells were treated with metalloproteinase inhibitors under three regimens: “Full-time” (2 h pretreatment + continuous exposure), “Entry” (viral attachment phase only), or “Post-entry” (≥ 2 hpi). Cells infected with RSV A2 (MOI = 1) were analyzed for cytopathic effect inhibition at 72 hpi versus DMSO controls. mean ± SD, n = 3. (B) No inhibition of RSV F/G/SH pseudovirus entry by doxycycline hyclate or JNJ0966 (5 µmol/L). mean ± SD, n = 3. (C) Temporal sensitivity analysis (left). Viral RNA levels (22 hpi) in HEp-2 cells treated with 5 µmol/L inhibitors at defined intervals: pre-infection (−2–0 h), entry (0–2 h), or post-entry (2–16 h) phases (right). mean ± SD, n = 3. (D) Multicycle replication kinetics. […] (F) Dose-dependent suppression of RSV progeny (MOI = 0.2/1) by inhibitors (72 hpi), quantified by FFA. mean ± SD, n = 3. […]
To evaluate the effects of the compounds on RSV assembly and release, we treated HEp-2 cells with the inhibitors at 10 hpi (the onset of virion assembly) or 16 hpi (the onset of virion release) following RSV infection ([Malhi et al., 2021]). Supernatants were collected at 22 hpi for viral titer quantification. […] Furthermore, at 72 hpi, viral titers were quantified following infection with varying doses of RSV (0.2 and 1 MOI).

Turning to `COc1ccccc1Nc1nc(-c2sc(NC(C)=O)nc2C)cs1` [JNJ0966], in the experiment with RSV F/G/SH pseudovirus, the “inhibition of RSV F/G/SH pseudovirus entry” value is recorded as “No inhibition”. Besides, the “inhibition of RSV replication (viral titers)” value with RSV A2 was “dose-dependent inhibition”.

Doxycycline hyclate: in the experiment with RSV F/G/SH pseudovirus, the “inhibition of RSV F/G/SH pseudovirus entry” value was “No inhibition”. In addition, the “inhibition of RSV replication (viral titers)” value in the experiment on RSV A2 is listed as “dose-dependent inhibition”.
